“Also recorded” adds a separate entry of the source.
Key:
Assay type in all cases: biochemical
xFANCD2 = assay: Induction of xFANCD2-L by circular plasmid dsDNA in Xenopus egg cell free extracts, immunoblot; settings: for induction of xFANCD2-L in the presence of circular plasmid DNA: 200 ng/ul circular plasmid dsDNA, etoposide 30 or 60 uM, ICRF-193 150 or 300 uM
Protocol: FIG. 13A is a digital image of an immunoblot showing Xenopus egg cell free extracts that were incubated with 160 ng/ul circular plasmid dsDNA for 30 min in the presence or absence of the replication initiation inhibitor geminin. Efficiency of replication inhibition was measured by performing a parallel replication assay using an aliquot of the geminin-treated extract (smaller panel in figure FIG. 13A). FIG. 13B is a digital image of an immunoblot showing that non-activated, M-phase egg extracts or CaCl2-activated, S-phase egg extracts were incubated with 160 ng/ul circular plasmid dsDNA. Extract aliquots (1 ul) were taken at the indicated time points and analyzed for xFANCD2 and xMre11. […] FIG. 13C is a digital image of an immunoblot showing Xenopus egg cell free extracts that were incubated with 160 ng/ul circular plasmid dsDNA for 30 min in the presence or absence of the checkpoint kinase inhibitor caffeine. Where indicated, extracts were supplemented with the phosphatase inhibitor, tautomycin, to stabilize xMre11-PPP. Following incubation, 1 ul of extract was analyzed for xFANCD2 and xMre11 by immunoblot. DNA-free extract was used as a size control for xFANCD2-S and xMre11 (lane 1). FIG. 13D is a digital image of an immunoblot showing Xenopus egg cell free extracts that were incubated either with bead-coupled anti-xATRIP antibody or with bead-coupled pre-immune serum and incubated with 200 ng/ul circular plasmid dsDNA. Aliquots were taken at different time points and assayed for xFANCD2 by immunoblot. 1 ul of DNA-free extract was used as a size control for xFANCD2-S (lane 5). […] Xenopus egg cell free extracts containing 200 ng/ul of circular plasmid dsDNA were incubated with etoposide (30 uM, lane 2; 60 uM, lane 3) or ICRF-193 (150 uM, lane 4; 300 uM, lane 5). Xenopus egg cell free extracts containing 200 ng/ul of circular plasmid dsDNA but not topoisomerase IIα inhibitor were used as positive control and DNA-free extracts were used as negative control for induction of xFANCD2-L. […]

xFANCM = assay: Xenopus egg cell free extract: xFANCM mobility shift (phosphorylation) upon addition of DNA, immunoblot; settings: natural product screen membranes reprobed with xFANCM antibody (FIG. 7B)
Protocol: 10 ul Xenopus egg extracts was combined with 0.5 ul compound (10 mM) or curcumin (control, 23 uM) then 0.5 ul plasmid DNA (pBluescript, 3.4 ug/ul) was added. The sample was incubated for 45 min at room temperature, then 60 ul of 1×SDS loading buffer. After incubation at 95° C. for 10 min, samples were resolved onto a NUPAGE™ 3-8% tris-acetate gradient gel (Invitrogen) and transferred onto a PVDF membrane (Immobilon P, Millipore).
Of the 235 compounds tested 7 (NP-A3, NP-A7, NP-D8, NP-E3, NP-F2, NP-F8, NP-H8) were positive for modulation of xFANCD2 activation (see FIG. 14). Membranes initially probed with xFANCD2 antibody were reprobed with xFANCM antibody. […] Thus xFANCM can be used as an indicator of Fanconi anemia pathway activation.

xFANCA, xFANCF, xFANCD2 = assay: Chromatin binding of xFA proteins in replicating S-phase Xenopus egg extracts with sperm chromatin; settings: for chromatin binding of xFA proteins (xFANCA, xFANCF, xFANCD2): replicating S-phase extracts with sperm chromatin
Protocol: Following replication (60 minutes), chromatin was re-isolated and the same blot was assayed in series for the presence of the xFA proteins indicated. A non-specific band is indicated (asterisk) as a loading control. […] A replication assay was performed to monitor incorporation of α-^32P-GTP during one round of replication in extracts treated as indicated. Total amounts of replication products at 60 minutes following addition of sperm chromatin to non-treated or treated extracts were analyzed by agarose gel electrophoresis and exposure to X-ray film. Band density percentages were determined using a BioRad Molecular PhosphorImager Fx (Kodak screens, Quantity-1 software). […] 1000 sperm pronuclei/ul were added to replicating extracts containing different concentrations of MMC (lanes 3-9). Extracts were otherwise untreated or contained caffeine (lanes 6+7) or a neutralizing anti-xATR antibody (lanes 8+9). MMC-concentrations: 150 μM (lanes 3, 6, 8), 50 μM (lanes 4, 7, 9), or 5 μM (lane 5). […] Sperm chromatin was added to S-phase egg extracts. Xenopus egg extracts were either untreated (−) or aphidicolin was added (+) at the indicated time points following addition of sperm DNA: 0 minutes, pre-nuclear membrane formation; 30 minutes, beginning of replication; 60 minutes, mid-replication; 90 minutes late/post-replication; and 120 minutes, post replication. All chromatin fractions were re-isolated at 135 minutes following addition of sperm DNA, analyzed by SDS-PAGE and immunoblotted as indicated. […] Xenopus egg extracts were treated with beads coupled to preimmune serum (lanes 2, 3, and 5) or beads coupled to anti-xATRIP serum (lanes 1, 4, and 6). Sperm chromatin was added to preimmune or xATRIP depleted extracts and allowed to replicate. Xenopus egg extracts were either untreated or supplemented with aphidicolin (added at 50 minutes following addition of sperm DNA). Chromatin fractions were re-isolated at 70 minutes and assayed for the presence of xFANCD2, xFANCA, xATRIP and xORC-2 by immunoblotting. […]

DNA replication = DNA replication assay of sperm chromatin in S-phase Xenopus egg extracts
Protocol: Following replication (60 minutes), chromatin was re-isolated and the same blot was assayed in series for the presence of the xFA proteins indicated. A non-specific band is indicated (asterisk) as a loading control. […] A replication assay was performed to monitor incorporation of α-^32P-GTP during one round of replication in extracts treated as indicated. Total amounts of replication products at 60 minutes following addition of sperm chromatin to non-treated or treated extracts were analyzed by agarose gel electrophoresis and exposure to X-ray film. Band density percentages were determined using a BioRad Molecular PhosphorImager Fx (Kodak screens, Quantity-1 software). […] 1000 sperm pronuclei/ul were added to replicating extracts containing different concentrations of MMC (lanes 3-9). Extracts were otherwise untreated or contained caffeine (lanes 6+7) or a neutralizing anti-xATR antibody (lanes 8+9). MMC-concentrations: 150 μM (lanes 3, 6, 8), 50 μM (lanes 4, 7, 9), or 5 μM (lane 5). […] Sperm chromatin was added to S-phase egg extracts. Xenopus egg extracts were either untreated (−) or aphidicolin was added (+) at the indicated time points following addition of sperm DNA: 0 minutes, pre-nuclear membrane formation; 30 minutes, beginning of replication; 60 minutes, mid-replication; 90 minutes late/post-replication; and 120 minutes, post replication. All chromatin fractions were re-isolated at 135 minutes following addition of sperm DNA, analyzed by SDS-PAGE and immunoblotted as indicated. […] Xenopus egg extracts were treated with beads coupled to preimmune serum (lanes 2, 3, and 5) or beads coupled to anti-xATRIP serum (lanes 1, 4, and 6). Sperm chromatin was added to preimmune or xATRIP depleted extracts and allowed to replicate. Xenopus egg extracts were either untreated or supplemented with aphidicolin (added at 50 minutes following addition of sperm DNA). Chromatin fractions were re-isolated at 70 minutes and assayed for the presence of xFANCD2, xFANCA, xATRIP and xORC-2 by immunoblotting. […] Xenopus egg extracts were treated with beads coupled to preimmune serum (lanes 1 and 3) or beads coupled to anti-xFANCA serum (lanes 2 and 4). Sperm chromatin was added to preimmune or xFANCA depleted extracts and allowed to replicate. Xenopus egg extracts were either untreated or supplemented with aphidicolin (added at 50 minutes following addition of sperm DNA). Chromatin fractions were re-isolated at 70 minutes and assayed for the presence of xFANCA, xATRIP and xORC-2 by immunoblotting.
Preparation of Xenopus egg extracts: Extracts were prepared from Xenopus eggs according to the method of Murray (Murray, Methods Cell Biol. 36:581-605, 1991). In brief, eggs were de-jellied in 2% cysteine, pH 7.8, washed three times in XB buffer (10 mM KCl, 1 mM MgCl2, […] CaCl2, 10 mM HEPES, 5 mM ethylene glycol tetraacetic acid (EGTA), 1.75% w/v sucrose, pH 7.8) and washed three times in CSF-XB buffer (5 mM EGTA, 2 mM MgCl2). Eggs were crushed by low speed centrifugation (10,000 g, 10 minutes) and the cytoplasmic fraction was cleared by centrifugation (16,000 g, 20 minutes) after the addition of energy mix (15 mM creatine phosphate, 2 mM ATP, 2 mM MgCl2), cytochalasin B (10 μg/ml), cycloheximide (100 μg/ml), and PEFABLOC™ (4-(2-aminoethyl)benzenesulfonylfluoride) (100 μg/ml). In some of the examples described herein, the extracts were released from M to S phase by the addition of CaCl2 to a final concentration of 0.4 mM. In some examples, the released extracts were incubated for 20 minutes at 23° C. Where indicated, mitomycin C (5-150 μM) and caffeine (4 mM), Tautomycin (3 uM), etoposide (30 or 60 uM), and ICRF-193 (150 and 300 uM) were added to S-phase extracts immediately prior to the addition of DNA substrates or sperm chromatin and incubated for the time indicated; aphidicolin (50 ng/1 μl), was added at the time points indicated.

xMre11 = assay: Induction of xMre11-PPP by plasmid DNA in Xenopus egg cell free extracts, immunoblot
Protocol: FIG. 13A is a digital image of an immunoblot showing Xenopus egg cell free extracts that were incubated with 160 ng/ul circular plasmid dsDNA for 30 min in the presence or absence of the replication initiation inhibitor geminin. Efficiency of replication inhibition was measured by performing a parallel replication assay using an aliquot of the geminin-treated extract (smaller panel in figure FIG. 13A). FIG. 13B is a digital image of an immunoblot showing that non-activated, M-phase egg extracts or CaCl2-activated, S-phase egg extracts were incubated with 160 ng/ul circular plasmid dsDNA. Extract aliquots (1 ul) were taken at the indicated time points and analyzed for xFANCD2 and xMre11. […] FIG. 13C is a digital image of an immunoblot showing Xenopus egg cell free extracts that were incubated with 160 ng/ul circular plasmid dsDNA for 30 min in the presence or absence of the checkpoint kinase inhibitor caffeine. Where indicated, extracts were supplemented with the phosphatase inhibitor, tautomycin, to stabilize xMre11-PPP. Following incubation, 1 ul of extract was analyzed for xFANCD2 and xMre11 by immunoblot. DNA-free extract was used as a size control for xFANCD2-S and xMre11 (lane 1). […]

[1] = high concentration of circular plasmid DNA (100 ng/ul), caffeine or geminin added

## COc1cc([C@@H]2c3cc4c(cc3[C@@H](O[C@@H]3O[C@@H]5CO[C@@H](C)O[C@H]5[C@H](O)[C@H]3O)[C@H]3COC(=O)[C@H]23)OCO4)cc(OC)c1O [etoposide]
xFANCD2
  induction of xFANCD2-L in the presence of circular plasmid DNA: significantly blocked

## C[C@@]12C(=O)OC(=O)[C@]1(C)[C@H]1CC[C@@H]2O1 [NP-B11, cantharidin]
xFANCM
  shift corresponding to xFANCM phosphorylation upon addition of DNA: stimulates the post-translational modification of xFANCM or inhibits the dephosphorylation of xFANCM; also recorded: strongly stimulated

## CO[C@@]12[C@H](COC(N)=O)C3=C(C(=O)C(C)=C(N)C3=O)N1C[C@@H]1N[C@@H]12 [MMC, mitomycin C]
xFANCA, xFANCF, xFANCD2
  chromatin binding of xFA proteins (xFANCA, xFANCF, xFANCD2): increased
DNA replication; 60 minutes after addition of sperm chromatin (FIG. 3A top right)
  replication (incorporation of radiolabeled nucleotides into nascent DNA): reduced
DNA replication; MMC 150 μM
  DNA replication: significantly blocked
DNA replication; lower MMC concentrations (50 μM, 5 μM)
  DNA replication: less inhibited

## ICRF-193
xFANCD2
  induction of xFANCD2-L in the presence of circular plasmid DNA: significantly blocked

## Cn1c(=O)c2c(ncn2C)n(C)c1=O [caffeine]
xFANCD2; [1]
  activation of xFANCD2-L by circular plasmid DNA: not significantly affected
xMre11; dsDNA fragments generated by HaeIII-digest
  induction of Mre11-PPP in response to dsDNA fragments: inhibited
xMre11; [1]
  induction of xMre11-PPP by circular plasmid DNA: inhibited
xFANCA, xFANCF, xFANCD2; MMC-treated replicating extracts plus caffeine
  MMC-induced recruitment of xFA proteins to chromatin: reversed
DNA replication; MMC 150 μM plus caffeine
  rescue of MMC-blocked replication: could not be rescued
DNA replication; MMC-treated extracts plus caffeine (FIG. 3A top right)
  rescue of MMC-reduced replication: rescued
DNA replication; lower MMC concentration (50 μM) plus caffeine
  rescue of MMC-inhibited replication: could be rescued

## C[C@@]1(CO)[C@H](O)CC[C@@]2(C)[C@H]1CC[C@H]1C[C@@H]3C[C@@]12CC[C@]3(O)CO [aphidicolin]
xFANCA, xFANCF, xFANCD2
  chromatin binding of xFA proteins (xFANCA, xFANCF, xFANCD2): increased chromatin association

Reference: US8030004B2, “Cell free screening assay and methods of use” (Oregon Health & Science University, priority 2005, dated 2011)
